Common to all, as to test: In vitro kinetic assay (inorganic phosphate production, malachite green)
Experiment [1] addresses T1, Mariprofundus ferrooxydans EPSP synthase DGT-14 v1, native wild type (GENBANK ZP_01452683; SEQ ID NO:17) (Mariprofundus ferrooxydans, UniProt Q0EYT4).
T1 construct: pET28, N-terminal 6xHis and thrombin site, E. coli, IMAC purified
In kind it is biochemical. The following applies: IC50 (glyphosate). The procedure:
One enzyme that was identified was DGT-14 (GENBANK ACC NO: ZP_01452683) from Manprofundus ferrooxydans. […] One of these enzymes, DGT-11 (SEQ ID NO:5), contains a natural alanine at an analogous position within the EPSP synthase enzyme as that of the G96A mutation which was introduced into the E. coli version of the enzyme.
Site directed mutagenesis was carried out on the synthetic dgt-14 v6 to confirm the role of the alanine that was introduced at the glycine residue of amino acid residue 101. THE QUICK CHANGE II® kit from Stratagene (Santa Clara, Calif.) was used to perform the mutagenesis. The following primers were designed to make the amino acid switch. […]
Cell pellets from 1 L cultures were resuspended in 20-30 mL Buffer A (50 mM HEPES pH 7.5, 150 mM KCl, 2 mM DTT, 1 mM EDTA, 20 mM imidazole, and 5% glycerol). […] Samples were typically diluted 1:50 and the UV-visible spectrum was recorded from 240-700 nm on a Cary50 Bio UV-visible spectrophotometer. A theoretical extinction coefficient was then used to calculate the protein concentration based on the absorbance at 280 nm (ExPASy, Geneva, Switzerland).
The enzyme activities of wild-type (WT) and mutant DGTs were measured by inorganic phosphate (Pi) production in a modified procedure described by Lanzetta et al., (1979). […]

Experiment [2] concerns the target bacterial EPSP synthase DGT-29 (GENBANK YP_322772.1) variant DGT-29 v6 (G→A at residue 96), SEQ ID NO:11 (Trichormus variabilis, UniProt Q3MAV9, G96A). To be noted: IC50 (glyphosate), values greater than 50 are estimates. The source says: The novel DGT-14, DGT-12, DGT-18, DGT-29 and DGT-30 enzymes were obtained and the glycine to alanine mutation was introduced into the EPSP synthase enzymes at a location analogous to the G96A location described for the E. coli version of the EPSP synthase enzyme. The DGT-14 protein sequence was modified by introducing an alanine to replace the endogenous glycine of GENBANK ACC NO: ZP_01452683 at amino acid residue 101, thereby resulting in SEQ ID NO:1. The DGT-12 protein sequence was modified by introducing an alanine to replace the endogenous glycine of GENBANK ACC NO: ZP_01622155.1 at amino acid residue 111, thereby resulting in SEQ ID NO:7. The DGT-18 protein sequence was modified by introducing an alanine to replace the endogenous glycine of GENBANK ACC NO: NP_928909.1 at amino acid residue 96, thereby resulting in SEQ ID NO:9. The DGT-29 protein sequence was modified by introducing an alanine to replace the endogenous glycine of GENBANK ACC NO: YP_322772.1 at amino acid residue 96, thereby resulting in SEQ ID NO:11. The DGT-30 protein sequence was modified by introducing an alanine to replace the endogenous glycine of GENBANK ACC NO: ZP_02156189.1 at amino acid residue 96, thereby resulting in SEQ ID NO:13.
The synthesized genes were cloned into the pET28 expression vector.
Recombinant DGT proteins were overexpressed in Rosetta2™ (DE3) cells (Novagen, Madison, Wis.) from the constructs described above. A single colony was used to inoculate 50 mL starter cultures of LB containing chloramphenicol (25 μg/mL) and kanamycin (50 μg/mL) which were cultivated overnight at 37° C. The overnight cultures were used to inoculate 1 L of LB containing chloramphenicol (25 μg/mL) and kanamycin (50 μg/mL). The cultures were grown at 37° C. to an O.D.600=0.6 then placed in an ice water bath for 10 minutes. Expression of the target proteins was achieved by addition of IPTG to a final concentration of 500 μM. Induction was allowed to proceed overnight at 20° C. followed by harvesting via centrifugation at 8,000 rpm for 20 minutes. The cell pellets were stored at −80° C. until required for purification. All purification steps were carried out at 4° C.

Experiment [3] addresses Mariprofundus ferrooxydans EPSP synthase DGT-14 variant DGT-14 v6 (G101A), SEQ ID NO:1 (Mariprofundus ferrooxydans, UniProt Q0EYT4, G101A). It is filed as biochemical. To be noted: IC50 (glyphosate), values greater than 50 are estimates.

One may read the IC50 as the concentration needed to halve the response being measured. Regarding `O=C(O)CNCP(=O)(O)O` [glyphosate, N-(phosphonomethyl)glycine], the IC50 is 0.44 mM in experiment [1] (at 60 μM PEP); above 20.2 mM in experiment [1] (at 1 mM PEP); above 80 mM in experiment [2] (*determined at 100 μM PEP); above 80 mM in experiment [2] (at 1 mM PEP); above 80 mM in experiment [3] (at 60 μM PEP); above 80 mM in experiment [3] (at 1 mM PEP).

The values are drawn from patent publication US9873883B2, “Glyphosate resistant plants and associated methods” (Dow AgroSciences LLC, priority 2012, dated 2018).
